Measured values: article PMC6158578, “Optimization and Lead Selection of Benzothiazole Amide Analogs Toward a Novel Antimycobacterial Agent” (Frontiers in Microbiology, 2018)
≈ marks a conversion by molar mass, not a printed value.

What was measured:
Mtb = assay: microbe, parasite or virus in culture; assay type: cell-based, M. tuberculosis; conditions: Mycobacterium tuberculosis
CYP2B6 = target: T1, CYP2B6 (Homo sapiens, UniProt P20813); assay: CYP inhibition in human liver microsomes; assay type: in vitro ADME
T1 construct: incubated with human liver microsomes in buffer containing 2 mM NADPH and probe substrate; from tissue; host or cells: human liver microsomes
T1 sequence (P20813 1-491): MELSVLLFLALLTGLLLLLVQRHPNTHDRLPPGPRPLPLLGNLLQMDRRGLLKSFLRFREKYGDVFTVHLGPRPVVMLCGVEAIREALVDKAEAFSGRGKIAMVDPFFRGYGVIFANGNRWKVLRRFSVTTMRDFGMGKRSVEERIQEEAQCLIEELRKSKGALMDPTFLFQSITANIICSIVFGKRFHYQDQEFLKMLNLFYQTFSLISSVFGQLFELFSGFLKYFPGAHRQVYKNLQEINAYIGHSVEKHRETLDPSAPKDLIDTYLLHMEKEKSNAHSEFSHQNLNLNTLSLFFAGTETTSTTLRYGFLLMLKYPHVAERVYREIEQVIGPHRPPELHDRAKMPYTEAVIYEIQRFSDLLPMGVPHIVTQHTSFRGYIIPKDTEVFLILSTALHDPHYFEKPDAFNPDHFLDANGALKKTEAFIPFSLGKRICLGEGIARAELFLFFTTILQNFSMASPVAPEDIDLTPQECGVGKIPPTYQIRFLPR
Experimental: (§1) ADMET assays were performed through NIAID Preclinical Services and Eurofins. Potential for cytotoxicity was monitored in HepG2 cells after 72 h growth in the presence of test compounds, either prepared as 10-point 3-fold serial dilutions or at a fixed 10 μM concentration. Cell viability was measured using the CellTiter-Glo® Luminescent Cell Viability Assay (Promega) or via fluorescent image analysis. Cytotoxicity was expressed as IC50 or as percent reduction of viable cells relative to a reference compound. Metabolic stability of compounds was evaluated via incubation with human liver microsomes at 37°C and quantitative analysis of parent compound by LC-MS/MS in samples removed at 0, 5, 15, 30, and 45 min (Obach, [1999]). For cytochrome P450 (CYP) inhibition assays, compounds were prepared as a 7-point dilution series and incubated with human liver microsomes in buffer containing 2 mM NADPH and probe substrate. […] Thermodynamic solubility of compounds in aqueous media was determined by incubation in 50 mM potassium phosphate buffer (pH 7.4) for 24 h, followed by HPLC-UV detection of compound in the filtrate (Analiza, Cleveland, OH, United States).

CYP3A = assay: CYP inhibition in human liver microsomes; assay type: in vitro ADME
Experimental: as §1

[1] = 50% complement-inactivated human serum
S. pyogenes ATCC 19615 = assay: MIC, spectrum of activity; assay type: cell-based; conditions: Streptococcus pyogenes, ATCC19615; S. pyogenes ATCC 19615; read-out: MIC
Intracellular Mtb = assay: microbe, parasite or virus in culture; assay type: cell-based, M. tuberculosis; conditions: Mycobacterium tuberculosis
[2] = tested on: Anaerobes (n > 20 strains); assay: organism not typed; assay type: cell-based
M. avium 101 = assay: MIC, Middlebrook medium (7H9 + OADC, 7 days); assay type: cell-based; conditions: Mycobacterium avium, 168 h; M. avium 101; read-out: MIC

In the case of CC12CC3CC(C)(C1)CC(C(=O)Nc1nc4ccc(OC(F)(F)F)cc4s1)(C3)C2 [CRS400226], the MBC (Mtb) is reported as 10.6 µg/mL (≈ 25 µM), the inhibition at 10 µM (CYP2B6) is reported as < 50% and the inhibition at 10 µM (CYP3A) is reported as < 50%. The “Protein (serum) binding” value [1] was >95%, the MIC (S. pyogenes ATCC 19615) was > 64 µg/mL and the IC90 (Intracellular Mtb) was 0.8 µg/mL (≈ 1.88 µM). The MIC [2] was > 16 µg/mL and the MIC (M. avium 101) was 2 µg/mL.
